Experimental data reported in US5798381A, “Biologically active bistramides, process for their production and their applications in therapy” (Institut Francais de Recherche Scientifique pour le …, priority 1993, dated 1998).
Values after ≈ are worked out from the molar mass of the structure shown. “Also recorded” adds a separate entry of the source. Where two headings read alike, the source gives them in different places.

Experiments:
mice = experiment: Acute toxicity (LD50), intravenous injection in mice; type: in vivo; conditions: statement in words
Protocol: The LD50 of these bistramides is in fact of the order of 1.7 mg/kg (measured in mice, after injection of the product by intravenous route as a single dose).
The "LD50 " of the products of the invention has been measured for mice after injection of the products by intravenous route.

[1] = system: NSCLC solid tumours (xenograft); type: in vivo, nude mouse
Protocol: The anti-tumoural activity of the products of the invention was studied against solid tumours of NSCLC type grafted onto a nude mouse (D. Riou, C. Roussakis, J. F. Biard, J. F. Verbist: "Comparative study of antitumor activity of bistramides A, D and K against non-small cell bronchopulmonary carcinoma", Anticancer Research, 1993, 13, 2321-2334). Each mouse received 0.2 ml of a cell solution obtained by the mechanical dispersion of about 1 g of excised mouse tumour in 4.8 ml of a sterile saline solution. The sub-cutaneous grafted tumours were measured over their long length L and their short length 1. The tumoural volume was evaluated according to the formula Vt=L×1^2 /2. The tumoural growth on day d was calculated by the formula Vtd /Vtd0 for each mouse, Vtd0 being the tumoural volume at the start of treatment.
The curve "------.circle-solid.------ " relates to the control experiment, the curves "--- .diamond-solid.---", "-- .quadrature.--" and "-- .box-solid.--" to experiments with 10, 20 and 5 mg/kg of bistramide D respectively and the curve "----*----" to an experiment with 10 mg/kg of bistramide K. Each point represents the average tumoural growth for 6 mice.
In these experiments, bistramide K is injected at the rate of 10 mg/kg by intraperitoneal route for 16 days and bistramide D at the rate of 5 mg/kg by intraperitoneal route every day for 16 days; at 10 mg/kg by intravenous route on days 1, 5, 9, 14, and at 20 mg/kg by intravenous route on days 1, 5, 9, 14.

HT 29 = experiment: Cytotoxicity, 50% inhibition of cell growth, HT 29; type: cell-based; conditions: Homo sapiens
Protocol: (§1) The cytoxicity results are recorded hereafter as the IC50 in μg/ml (concentration corresponding to a 50% inhibition of cell growth) on 6 tumoural lines namely KB, P388, P388/dox (resistant to doxorubicin), B16 and H429 and NSCLC-N6, which are human cells of non-small cell bronchopulmonary carcinoma type.
(§2) The determinations were carried out according to the protocol given in Cancer Chemother. Pharmacol. (1991) 28:283-292 by Roussakis et al.

NSCLC.N6-L16 = experiment: Cytotoxicity, 50% inhibition of cell growth, NSCLC-N6; type: cell-based; conditions: Homo sapiens
Protocol: as §1, §2

P388/dox (p388r) = experiment: Cytotoxicity, 50% inhibition of cell growth, P388/dox (resistant to doxorubicin); type: cell-based; conditions: Mus musculus
Protocol: as §1, §2

P388 (p388s) = experiment: Cytotoxicity, 50% inhibition of cell growth, P388; type: cell-based; conditions: Mus musculus, P388/S, read-out: IC50 (50% inhibition of cell growth)
Protocol: as §1, §2

KB = experiment: Cytotoxicity, 50% inhibition of cell growth, KB; type: cell-based; conditions: Homo sapiens, read-out: IC50 (50% inhibition of cell growth)
Protocol: as §1, §2

B16 = experiment: Cytotoxicity, 50% inhibition of cell growth, B16; type: cell-based
Protocol: as §1, §2

With `C/C=C/C(=O)CC1CCC(C)C(CC(=O)NCC(O)C(C)C(=O)NCCCC2OC3(CCCC(CCC(C)/C=C(\C)C(C)O)O3)CCC2C)O1` (stereo not drawn) [Bistramide A] the toxicity in vivo (mice) was “high toxicity; also recorded: toxic”, the toxicity in vivo (mice; listed as A bistramide) was “acute toxicity” and the “toxicity under the conditions of the xenograft test” value ([1]; mouse, in vivo) was “too toxic for an anti-tumoural effect to be observed”.
In the case of `CCCC(=O)CC1CCC(C)C(CC(=O)NCC(O)C(C)C(=O)NCCCC2OC3(CCCC(CCC(C)C=C(C)C(C)O)O3)CCC2C)O1` (stereo not drawn) [Bistramide B], the toxicity in vivo (mice) is reported as “high toxicity”.
In the case of `C/C=C/C(=O)CC1CCC(C)C(CC(=O)NCC(O)C(C)C(=O)NCCCC2OC3(CCCC(CCC(C)C=C(C)C(C)=O)O3)CCC2C)O1` (stereo not drawn) [Bistramide C], the toxicity in vivo (mice) is reported as “high toxicity”.
With `C/C=C/C(O)C/C=C/CC(C)C(O)CC(=O)NCC(O)C(C)C(=O)NCCCC1OC2(CCCC(CCC(C)/C=C(\C)C(C)O)O2)CCC1C` (stereo not drawn) [Bistramide K] the IC50 (HT 29; HT 29, read-out: IC50 (50% inhibition of cell growth)) was 5.6 µg/mL (≈ 7.92 µM), the IC50 (NSCLC.N6-L16; NSCLC.N6-L16, read-out: IC50 (50% inhibition of cell growth)) was 3.23 µg/mL (≈ 4.57 µM) and the “tumoural growth relative to controls (100%)” value ([1]; 10 mg/kg, IP, for 16 days, at the end of 30 days) was 49%. For the same compound, the IC50 (P388/dox (p388r)) was > 10 µg/mL, the IC50 (P388 (p388s); p388s) was 0.57 µg/mL (≈ 0.806 µM) and the IC50 (KB) was > 10 µg/mL. The IC50 (B16; Mus musculus, B16; read-out: IC50 (50% inhibition of cell growth)) was 1.9 µg/mL (≈ 2.69 µM).
With `C/C=C\C(=O)CC1CCC(C)C(CC(=O)NCC(O)C(C)C(=O)NCCCC2OC3(CCCC(CCC(C)/C=C(\C)C(C)O)O3)CCC2C)O1` (stereo not drawn) [Bistramide L] the IC50 (HT 29; HT-29, read-out: IC50 (50% inhibition of cell growth)) was 0.29 µg/mL (≈ 0.411 µM), the IC50 (NSCLC.N6-L16; NSCLC-N6, read-out: IC50 (50% inhibition of cell growth)) was 0.12 µg/mL (≈ 0.17 µM) and the IC50 (P388/dox (p388r)) was 0.12 µg/mL (≈ 0.17 µM). It also gave an IC50 (P388 (p388s)) of 0.48 µg/mL (≈ 0.681 µM), an IC50 (KB) of 0.72 µg/mL (≈ 1.02 µM) and an IC50 (B16; Mus musculus, B16, read-out: IC50 (50% inhibition of cell growth)) of 2.4 µg/mL (≈ 3.4 µM).
